System: SARS-CoV-2
Experiment: microbe, parasite or virus in culture
Conditions: Severe acute respiratory syndrome coronavirus 2, Vero C1008, 48 h

Structure (SMILES)	IC50 [µM]	IC50 (read-out: pIC50 (converted)) [µM]
C=C[C@@H]1CN2CCC1C[C@@H]2[C@H](O)c1ccnc2ccccc12 (stereo not given in full)	> 20	> 20
CC1(C)CC(O)CC(C)(C)N1[O] [TEMPOL]	> 20	> 20
CCc1ccccc1-n1c(C)nc2ccccc2c1=O [ETAQUALONE]	> 25.1	> 25.1
COc1ccc(CCNCC(O)COc2cccc(C)c2)cc1OC (stereo not given) [BEVANTOLOL]	> 20	> 20
CCCCCCCCN=c1ccn(CCCCCCCCCCn2ccc(=NCCCCCCCC)cc2)cc1 [OCTENIDINE]	> 20	> 20
CCN(CC)C(=O)C1(c2ccccc2)CC1CN (stereo not given)	> 20	> 20
Nc1ccn([C@H]2C[C@H](O)[C@@H](CO)O2)c(=O)n1 [DOXECITINE]	> 20	> 20
CC(C)(O)c1ccccc1CC[C@@H](SCC1(CC(=O)O)CC1)c1cccc(/C=C/c2ccc3ccc(Cl)cc3n2)c1 [MONTELUKAST]	> 20	> 20
C[C@]12CCC3C(CCC4=C(Cl)C(=O)CC[C@@]43C)C1CCC2O (stereo not given in full)	> 20	> 20
CCOC(=O)C(CC)(C(=O)NCCN(CC)CC)c1ccccc1 (stereo not given) [FENALAMIDE]	> 20	> 20
O=C(c1ccc(F)cc1)C1CCN(CCn2c(=S)[nH]c3ccccc3c2=O)CC1 [ALTANSERIN]	> 20	> 20
CC(=O)Oc1cc(OC(C)=O)c2c(c1)O[C@H](c1ccc(OC(C)=O)c(OC(C)=O)c1)[C@@H](OC(C)=O)C2 [CATECHIN PENTAACETATE]	> 20	> 20
CCOC(=O)[C@H](C)NP(=O)(COCCn1cnc2c(NC3CC3)nc(N)nc21)N[C@@H](C)C(=O)OCC [RABACFOSADINE]	> 20	> 20
C[C@H]1CN([C@H]2CC[C@](C#N)(c3ccc(F)cc3)CC2)CC[C@@]1(C(=O)O)c1ccccc1	> 20	> 20
CCN(CC)C(C)CN1c2ccccc2Sc2ccccc21 (stereo not given) [ETHOPROPAZINE]	> 20	> 20
Nc1nnc(-c2cccc(Cl)c2Cl)c(N)n1 [LAMOTRIGINE]	> 20	> 20
CC(=O)Nc1ncc([N+](=O)[O-])s1 [NITHIAMIDE]	> 20	> 20
CCOc1ccc(Cc2cc([C@@H]3O[C@H](CO)[C@@H](O)[C@H](O)[C@H]3O)ccc2Cl)cc1 [DAPAGLIFLOZIN]	> 20	> 20
C[C@@H]1CCC[C@H](C)N1NC(=O)c1ccc(Cl)c(S(N)(=O)=O)c1 [CLOPAMIDE]	> 20	> 20
O=C1C(CC[S+]([O-])c2ccccc2)C(=O)N(c2ccccc2)N1c1ccccc1 (stereo not given) [SULFINPYRAZONE]	> 20	> 20
COc1ccc2c(c1OC)C(=O)O[C@@H]2[C@H]1c2cc3c(cc2CCN1C)OCO3 [HYDRASTINE]	> 20	> 20
CCCC(=O)O [BUTYRIC ACID]	> 20	> 20
COc1cc(CNC(=O)CCCC/C=C/C(C)C)ccc1O [CAPSAICIN]	> 20	> 20
O=[N+]([O-])/C(Br)=C\c1ccc(Br)o1	> 20	> 20

Structure (SMILES)	IC50 [µM]	IC50 (read-out: pIC50 (converted)) [µM]
COc1ccc(-c2nc(C(F)(F)F)sc2-c2ccc(OC)cc2)cc1 [ITAZIGREL]	> 20	> 20
CC(C(=O)O)c1cccc2c(-c3ccccc3)coc12 (stereo not given) [FURAPROFEN]	> 20	> 20
Nc1nc2[nH]cc(CCc3ccc(C(=O)N[C@@H](CCC(=O)O)C(=O)O)cc3)c2c(=O)[nH]1 [PEMETREXED]	> 20	> 20
CCN1CC(CCN2CCOCC2)C(c2ccccc2)(c2ccccc2)C1=O (stereo not given) [DOXAPRAM]	> 20	> 20
CN(C)c1ccc(-c2ccc3cc(OC[C@@H](O)CF)ccc3n2)cc1	> 20	> 20
O=C(CCCN1CCC(n2c(=S)[nH]c3ccccc32)CC1)c1ccc(F)cc1 [TIMIPERONE]	> 20	> 20
C[C@H](NC(=O)Cn1nnc2ccccc2c1=O)c1ccc(OC(F)(F)F)cc1 [ZELATRIAZIN]	> 20	> 20
CCN(CC)CCNC(=O)c1cc(Br)c(N)cc1OC [BROMOPRIDE]	> 20	> 20
COC(=O)N[C@@H](C(=O)N1CCC[C@@H]1c1ncc(-c2ccc(-c3ccc(-c4cnc([C@H]5CC6(CN5C(=O)[C@H](NC(=O)OC)C(C)C)OCCO6)[nH]4)cc3)cc2)[nH]1)C(C)C	> 20	> 20
O=C1NCCN1c1ncc([N+](=O)[O-])s1 [NIRIDAZOLE]	> 20	> 20
CNC(=O)c1cnn(-c2nc(N)c3ncn([C@@H]4O[C@H](CO)[C@@H](O)[C@H]4O)c3n2)c1 [REGADENOSON ANHYDROUS]	> 20	> 20
CC1CC[C@@]2(OC1)OC1CC3C4CC[C@@H]5C[C@@H](O)CC[C@]5(C)C4CC[C@]3(C)C1[C@@H]2C (stereo not given in full)	> 20	> 20
C=C1[C@@H]2CC[C@H]3[C@]4(C)C[C@H](O[C@H]5O[C@H](CO)[C@@H](OS(=O)(=O)O)[C@H](OS(=O)(=O)O)[C@H]5OC(=O)CC(C)C)C[C@@H](C(=O)O)[C@H]4CC[C@]3(C2)[C@H]1O	> 20	> 20
CN1C2CCC1CC(OC(c1ccccc1)c1ccccc1N)C2 (stereo not given)	> 20	> 20
CCN(CC)CCOC(=O)C1(C2CCCCC2)CCCCC1 [DICYCLOMINE]	> 20	> 20
OCCN1CCN(CCCN2c3ccccc3C=Cc3ccccc32)CC1 [OPIPRAMOL]	> 20	> 20
CC[C@@H](CO)NCCN[C@@H](CC)CO [ETHAMBUTOL]	> 20	> 20
CC[C@]12CCCN3CCc4c(n(c5ccccc45)C(=O)C1)[C@@H]32 [VINBURNINE]	> 20	> 20
CC(=O)c1ccc(S(=O)(=O)NC(=O)NC2CCCCC2)cc1 [ACETOHEXAMIDE]	> 20	> 20
NC(=O)c1ccc(N(C(N)=O)c2c(F)cccc2F)nc1-c1ccc(F)cc1F [VX-702]	> 20	> 20
CNC(=O)c1ccc(Nc2ncc(C(F)(F)F)c(NCc3nccnc3N(C)S(C)(=O)=O)n2)cc1 [DEFACTINIB]	> 20	> 20
CC(Cc1ccccc1)NN (stereo not given) [PHENIPRAZINE]	> 20	> 20
C[N+]1(C)CCCC(OC(=O)C(O)(c2ccccc2)c2ccccc2)C1 (stereo not given) [MEPENZOLATE]	> 20	> 20
C/C=C/C[C@@H](C)[C@@H](O)[C@H]1C(=O)N[C@@H](CC)C(=O)N(C)[C@H](C)C(=O)N(CC)[C@@H](C(C)C)C(=O)N[C@@H](C(C)C)C(=O)N(C)[C@@H](CC(C)C)C(=O)N[C@@H](C)C(=O)N[C@H](C)C(=O)N(C)[C@@H](CC(C)C)C(=O)N(C)[C@@H](CC(C)C)C(=O)N(C)[C@@H](C(C)C)C(=O)N1C [ALISPORIVIR]	> 20	> 20

Structure (SMILES)	IC50 [µM]	IC50 (read-out: pIC50 (converted)) [µM]
NC(C=O)C(O)C(O)C(O)CO (stereo not given)	> 20	> 20
C[C@H](Oc1ccc2[nH]nc(/C=C/c3cnn(CCO)c3)c2c1)c1c(Cl)cncc1Cl	> 20	> 20
Cc1cc(Nc2ncc(Cl)c(Nc3ccccc3S(=O)(=O)C(C)C)n2)c(OC(C)C)cc1C1CCNCC1 [CERITINIB]	> 20	> 20
CC(=O)OCC(=O)[C@H]1CC[C@H]2[C@@H]3CCC4=CC(=O)CC[C@]4(C)[C@H]3CC[C@]12C [DESOXYCORTICOSTERONE ACETATE]	> 20	> 20
O=C(O)COc1ccc(C(=O)c2cccs2)c(Cl)c1Cl	> 20	> 20
c1cncc(C2CCCCN2)c1 (stereo not drawn) [DL-ANABASINE]	> 20	> 20
CCc1ccc(OCc2ccccc2C(=O)Nc2ccc3nc(C)cc(N)c3c2)cc1	> 20	> 20
CN1C(=O)CN=C(c2ccccc2)c2cc(Cl)ccc21 [DIAZEPAM]	> 20	> 20
CN(C)CCc1c[nH]c2ccc(CS(=O)(=O)N3CCCC3)cc12 [ALMOTRIPTAN]	> 20	> 20
CN1CCN(Cc2ccc(Nc3ncc(Cl)c(Nc4ccccc4S(=O)(=O)N(C)C)n3)cc2)CC1 [DUBERMATINIB]	> 20	> 20
CN1C(C(=O)Nc2ccccn2)=C(O)c2sccc2S1(=O)=O [TENOXICAM]	> 20	> 20
C=CC(=O)Nc1cccc(Oc2nc(Nc3ccc(N4CCN(C)CC4)c(F)c3)nc3[nH]ccc23)c1 [ABIVERTINIB]	> 20	> 20
CC[C@@H]1C2C[C@H](O)CC[C@]2(C)[C@H]2CC[C@]3(C)[C@@H]([C@H](C)CCC(=O)O)CC[C@H]3[C@@H]2[C@@H]1O (stereo not given in full)	> 20	> 20
[2H]C([2H])([2H])O[C@@H]1CN(CCCOc2ccc(F)cc2)CC[C@@H]1NC(=O)c1cc(Cl)c(N)cc1OC	> 20	> 20
COc1cc2nccc(Oc3ccc(NC(=O)NC4CC4)c(Cl)c3)c2cc1C(N)=O [LENVATINIB]	> 20	> 20
CCc1nn(CCCN2CCN(c3cccc(Cl)c3)CC2)c(=O)n1CCOc1ccccc1 [NEFAZODONE]	> 20	> 20
Nc1ccc(S(=O)(=O)c2ccc(N)cc2)cc1 [DAPSONE]	> 20	> 20
NCCC(=O)N[C@@H](Cc1c[nH]cn1)C(=O)O [CARNOSINE]	> 20	> 20
C[C@@](O)(COc1ccc(C#N)cc1)C(=O)Nc1ccc(C#N)c(C(F)(F)F)c1	> 20	> 20
CC(=O)OC1CCC2C3CCC4C/C(=N\Oc5ccc([N+](=O)[O-])cc5)C(Cl)CC4(C)C3CCC12C (stereo not given)	> 20	> 20
CN1CCN(CCCCN2C(=O)CN(/N=C/c3ccc(-c4ccc(Cl)cc4)o3)C2=O)CC1 [AZIMILIDE]	> 20	> 20
C=CCN1Cc2ccccc2-c2ccccc2C1 [AZAPETINE]	> 20	> 20

— ChEMBL document CHEMBL4651402, “Screening of ~5500 FDA-approved drugs and clinical candidates for anti-SARS-CoV-2 activity” (2021)
